{"source": "paper PMC8400343", "about": "“Synthesis and Evaluation of the Antidepressant-like Properties of HBK-10, a Novel 2-Methoxyphenylpiperazine Derivative Targeting the 5-HT1A and D2 Receptors” (Pharmaceuticals, 2021)", "key": {"[1]": {"system": "corticosterone-treated mice", "assay": "Forced swim test in corticosterone-induced mouse model of depression", "format": "in vivo", "conditions": "for Decrease of immobility in the forced swim test in corticosterone-treated mice: chronic (3 weeks)", "protocol": "(§1) The experiment was performed on mice according to the method described by Porsolt et al. and as previously described. Mice were placed individually in glass cylinders (height 25 cm, diameter 10 cm) filled with water at 24 ± 1 °C to a depth of 10 cm and left there for 6 min. Following a 2 min habituation period, total time spent immobile was recorded during the next 4 min. The animal was considered as immobile when it remained floating passively in the water, making only small movements to keep its head above the water. The experiments were video-recorded and scored using elevenmaze.com software by a trained observer blind to the treatments.\nMice were injected with corticosterone (sc, 20 mg/kg) at random times during the light phase for 21 days. The dose and route of administration of corticosterone were based on our previous study. Control mice received saline containing 0.1% dimethyl sulfoxide (DMSO) and 0.1% Tween (sc). For the next 21 days, 30 min before the corticosterone injection, mice were injected with saline, HBK-10 (0.625 or 1.25 mg/kg), or fluoxetine (15 mg/kg) (ip). Twenty-four hours after the last injection, animals were tested in the forced swim test and locomotor activity test (Figure 8)."}, "[2]": {"target": "T1, serotonin transporter (SERT) (Rattus norvegicus, UniProt P31652)", "T1 construct": "from tissue; host or cells: rat cortex", "T1 sequence (P31652 whole entry)": "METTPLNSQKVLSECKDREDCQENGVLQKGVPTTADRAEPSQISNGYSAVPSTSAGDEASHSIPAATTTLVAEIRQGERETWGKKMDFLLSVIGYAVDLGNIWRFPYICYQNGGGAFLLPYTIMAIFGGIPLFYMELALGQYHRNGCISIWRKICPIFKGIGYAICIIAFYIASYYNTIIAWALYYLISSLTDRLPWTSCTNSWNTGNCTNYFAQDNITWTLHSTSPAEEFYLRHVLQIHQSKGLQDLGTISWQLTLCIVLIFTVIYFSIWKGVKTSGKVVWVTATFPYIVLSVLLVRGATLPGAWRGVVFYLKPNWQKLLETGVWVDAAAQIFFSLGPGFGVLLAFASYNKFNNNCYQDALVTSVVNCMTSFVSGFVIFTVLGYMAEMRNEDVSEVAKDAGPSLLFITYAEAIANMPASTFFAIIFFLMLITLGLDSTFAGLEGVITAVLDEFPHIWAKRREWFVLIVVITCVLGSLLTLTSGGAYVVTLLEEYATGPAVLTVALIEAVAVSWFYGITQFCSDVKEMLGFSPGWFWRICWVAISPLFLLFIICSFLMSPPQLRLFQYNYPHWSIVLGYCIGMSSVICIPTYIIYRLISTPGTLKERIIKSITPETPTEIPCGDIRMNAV", "assay": "Radioligand binding, [3H]-citalopram, rat cortex tissue", "conditions": "mean ± SEM, read-out: Serotonergic pKi SERT (converted)", "protocol": "(§2) Radioligand binding was performed on membranes from CHO-K1 cells stably transfected with the human 5-HT1A, 5-HT2A, 5-HT6, or 5-HT7 receptors. […] Binding experiments were conducted in 96-well microplates, and the reaction mix included the solution of the test compound, radioligand, and diluted membranes or the tissue suspension.\n(§3) The reaction was terminated by rapid filtration through GF/B or GF/C filter mate presoaked with 0.3% polyethyleneimine for 30 min. Ten rapid washes with 200 µl 50 mM Tris buffer (4 °C, pH 7.4) were performed using an automated harvester system Harvester-96 MACH III FM (Tomtec). […] Radioactivity was counted in the MicroBeta2 scintillation counter (PerkinElmer) at approximately 30% efficiency. […] A single assay was performed with each compound concentrations in duplicate, and the whole assay was repeated in a three independent experiments."}, "[3]": {"assay": "Spontaneous locomotor activity in mice", "format": "in vivo, mouse", "conditions": "mouse, in vivo; ip, mice; read-out: ED50 (locomotor activity, sedative effect)", "protocol": "(§4) The locomotor activity of mice was measured as previously described. We used photoresistor actometers (Ugo Basile, Italy) connected to a counter for the recording of light-beam interruptions. Mice were placed individually in cages for 30 min, and the number of crossings of the light beams was recorded as the locomotor activity for 4 min."}, "[4]": {"system": "mice", "assay": "Spontaneous locomotor activity in mice", "format": "in vivo, mouse", "conditions": "for Number of Crossings ± SEM: 4 min", "protocol": "as §4"}, "[5]": {"target": "T2, human 5-HT1A receptor (Homo sapiens, UniProt P08908)", "T2 construct": "expressed in transfected cells; host or cells: CHO-K1 (membranes)", "T2 sequence (P08908 1-422)": "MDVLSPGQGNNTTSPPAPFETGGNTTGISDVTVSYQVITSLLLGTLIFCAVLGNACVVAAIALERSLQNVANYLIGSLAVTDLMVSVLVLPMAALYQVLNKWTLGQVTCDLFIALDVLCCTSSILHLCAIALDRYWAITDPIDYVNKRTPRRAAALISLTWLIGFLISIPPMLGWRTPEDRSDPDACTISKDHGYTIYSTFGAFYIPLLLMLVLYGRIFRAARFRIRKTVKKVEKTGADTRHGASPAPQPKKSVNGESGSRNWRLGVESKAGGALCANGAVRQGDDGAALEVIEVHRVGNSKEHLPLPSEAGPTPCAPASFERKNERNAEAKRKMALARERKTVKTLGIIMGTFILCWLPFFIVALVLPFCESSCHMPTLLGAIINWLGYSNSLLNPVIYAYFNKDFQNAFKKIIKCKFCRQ", "assay": "Radioligand binding, [3H]8-OH-DPAT, CHO-K1 membranes", "conditions": "CHO-K1 cells, mean ± SEM, read-out: Serotonergic pKi 5-HT1A (converted)", "protocol": "as §2, §3"}, "[6]": {"system": "mice", "assay": "Forced swim test in naive mice", "format": "in vivo, mouse", "protocol": "Adult male Albino-Swiss mice (CD-1, 8 weeks old, 18–21g: Jagiellonian University Medical College, Krakow, Poland) were used in all experiments. Unless stated otherwise, the animals were kept in groups of 10 mice in standard cages (37 cm × 21 cm × 15 cm) at a room temperature (22 ± 2 °C), on a 12 h light/dark cycle (lights on 7:00) with ad libitum access to food and water. Mice were used only once in each test. Behavioral experiments were performed between 8 am and 4 pm and evaluated by a trained observer blind to the treatments. Mice were handled for 1 week before starting the experimental procedures. Animals were randomly allocated to the treatment using a computer-generated sequence, and researchers making measurements on the animals or analyzing the results were blind to the allocation. Moreover, experimental groups were distributed across multiple cages, and the location of the mouse cages in the room was changed following each day.\nHBK-10, WAY-100635 (Sigma, Darmstadt, Germany), p-chlorophenylalanine (pCPA; Sigma, Darmstadt, Germany), fluoxetine (Sigma, Darmstadt, Germany), reboxetine (Sigma, Darmstadt, Germany) and bupropion (Sigma, Darmstadt, Germany), were suspended in 1% Tween, and administered ip at a volume of 10 mL/kg 30 min before each behavioral test. The control groups received saline ip 30 min prior to testing. The doses of fluoxetine, reboxetine and bupropion as well as WAY-100635 and pCPA were based on our previous studies with 2-methoxyphenylpiperazine derivatives.\nas §1\nTo assess the involvement of a serotonergic system in the antidepressant-like activity of tested compounds in the forced swim test, the mice were pretreated with pCPA (tryptophan hydroxylase inhibitor) according to the method previously described. […]. Twenty-four hours after the last pCPA administration, we injected mice with 1% Tween ip or tested compound. We performed the forced swim test 30 min after the administration.\nThe putative involvement of 5-HT1A receptors in the antidepressant-like effect of tested compound was studied using WAY-100635 (a selective 5-HT1A receptor antagonist). WAY-100635 at a dose of 0.1 mg/kg was administered sc 15 min prior to the injection of HBK-10. After 30 min the forced swim test was performed. The behaviorally ineffective dose of WAY-100635 used in the experiments was based on our previous experiments."}}}
{"smiles": "CCC(CN1CCN(c2ccccc2OC)CC1)NCCCOc1c(C)cccc1C.Cl.Cl", "note": "(stereo not shown) [HBK-10, N-(3-(2,6-dimethylphenoxy)propyl)-1-(4-(2-methoxyphenyl)piperazin-1-yl)butan-2-amine dihydrochloride]", "values": [{"measurement": "Decrease of immobility in the forced swim test in corticosterone-treated mice", "setting": "[1]; 0.625 mg/kg ip", "value": 30.9, "unit": "%"}, {"measurement": "Decrease of immobility in the forced swim test in corticosterone-treated mice", "setting": "[1]; 1.25 mg/kg ip", "value": 39.5, "unit": "%"}, {"measurement": "Active dose in corticosterone model, fold lower than fluoxetine", "setting": "[1]; chronic administration", "value": 24, "unit": "fold"}, {"measurement": "Active dose in corticosterone model, fold lower than HBK-15", "setting": "[1]; comparator data ref 21", "value": 2, "unit": "fold"}, {"measurement": "Ki", "setting": "[2]", "value": 3720, "unit": "nM"}, {"measurement": "ED50 at 4 min", "setting": "[3]", "value": 32.3, "unit": "mg/kg"}, {"measurement": "Number of Crossings ± SEM", "setting": "[4]; 10 mg/kg ip", "value": "355.1 ± 49.92"}, {"measurement": "Number of Crossings ± SEM", "setting": "[4]; 20 mg/kg ip", "value": "329.8 ± 34.52"}, {"measurement": "Number of Crossings ± SEM", "setting": "[4]; 40 mg/kg ip", "value": "155.4 ± 29.59"}, {"measurement": "Number of Crossings ± SEM", "setting": "[4]; 60 mg/kg ip", "value": "22.17 ± 2.03"}, {"measurement": "ED50 for sedative effect, fold higher than the lowest antidepressant-like dose", "setting": "[4]; mouse, in vivo", "value": "approximately 26 fold"}, {"measurement": "Ki", "setting": "[5]", "value": 5.13, "unit": "nM"}, {"measurement": "Reduction of immobility in the forced swim test", "setting": "[6]; 1.25 mg/kg ip, WAY-100635 experiment, no pretreatment", "value": 35.7, "unit": "%"}, {"measurement": "Reduction of immobility in the forced swim test", "setting": "[6]; 1.25 mg/kg ip, pCPA experiment, no pretreatment", "value": 28.1, "unit": "%"}, {"measurement": "Reduction of immobility in the forced swim test", "setting": "[6]; 1st of five values, dose range 1.25–10 mg/kg ip, 30 min before test (lowest dose 1.25 mg/kg)", "value": 21.1, "unit": "%"}, {"measurement": "Reduction of immobility in the forced swim test", "setting": "[6]; 2nd of five values, dose range 1.25–10 mg/kg ip, dose not given", "value": 23.5, "unit": "%"}, {"measurement": "Reduction of immobility in the forced swim test", "setting": "[6]; 3rd of five values, dose range 1.25–10 mg/kg ip, dose not given", "value": 26.6, "unit": "%"}, {"measurement": "Reduction of immobility in the forced swim test", "setting": "[6]; 4th of five values, dose range 1.25–10 mg/kg ip, dose not given", "value": 44.2, "unit": "%"}, {"measurement": "Reduction of immobility in the forced swim test", "setting": "[6]; 5th of five values, dose range 1.25–10 mg/kg ip (highest dose 10 mg/kg)", "value": 47.2, "unit": "%"}, {"measurement": "Effect on immobility in the forced swim test, combined administration", "setting": "[6]; HBK-10 0.625 mg/kg combined with bupropion 2.5 mg/kg, ip", "value": "did not significantly decrease the immobility"}, {"measurement": "Decrease of immobility in the forced swim test, combined administration", "setting": "[6]; HBK-10 0.625 mg/kg combined with fluoxetine 10 mg/kg, ip", "value": 40.9, "unit": "%"}, {"measurement": "Decrease of immobility in the forced swim test, combined administration", "setting": "[6]; HBK-10 0.625 mg/kg combined with reboxetine 5 mg/kg, ip", "value": 57.7, "unit": "%"}, {"measurement": "Antidepressant-like effect in the forced swim test after pCPA pretreatment", "setting": "[6]; HBK-10 1.25 mg/kg ip after pCPA 200 mg/kg for three days", "value": "abolished"}, {"measurement": "Antidepressant-like effect in the forced swim test after WAY-100635 pretreatment", "setting": "[6]; HBK-10 1.25 mg/kg ip, WAY-100635 0.1 mg/kg sc 15 min before", "value": "abolished"}, {"measurement": "Active dose in the forced swim test, fold lower than escitalopram", "setting": "[6]; comparator data ref 19, 42", "value": 2, "unit": "fold"}, {"measurement": "Active dose in the forced swim test, fold lower than reboxetine", "setting": "[6]; comparator data ref 19, 42", "value": 8, "unit": "fold"}, {"measurement": "Activity in the forced swim test at 0.625 mg/kg", "setting": "[6]; naive mice, 0.625 mg/kg, single administration", "value": "inactive"}, {"measurement": "Lowest active dose in the forced swim test", "setting": "[6]; naive mice, single administration", "value": 1.25, "unit": "mg/kg"}]}
